Tests used:
[1] = test system: S. aureus (Gram-positive bacteria); assay: Growth inhibition timeframe at various concentrations of sodium citrate; assay type: cell-based, Staphylococcus aureus; conditions: through 24 hours; for growth of S. aureus: pH 6.4-7.5
Protocol: FIG. 3 is a table showing growth inhibition timeframe of Gram-positive Staphylococcus aureus exposed to various concentrations of sodium citrate.
(§1) In vitro testing was conducted with various concentrations of sodium citrate on S. aureus (Gram-positive bacteria) (FIG. 3), P. aeruginosa (Gram-negative bacteria) (FIG. 4), and yeast, C. albicans (FIG. 5). Testing was conducted as set forth in ‘Methods for Dilution Antimicrobial Susceptibility Tests for Bacteria That Grow Aerobically,’ 11th Edition, Clinical and Laboratory Standards Institute (2018), ‘Methods for Determining Bactericidal Activity of Antimicrobial Agents' Approved Guideline.’ Vol. 12, No. 9, Clinical and Laboratory Standards Institute (1999), and ‘Development of In Vitro Susceptibility Testing Criteria and Quality Control Parameters; Approved Guideline-Second Edition,’ Vol. 21, No. 7, Clinical and Laboratory Standards Institute (2001). Briefly, trisodium citrate salt was compounded using purified water and the pH was adjusted, if necessary, with hydrochloric acid to provide a composition with a pH between 6.4 and 7.5. […] Due to this, it is expected that growth inhibition and possibly eradication can occur beyond 24 hours.

Gram-positive bacteria = assay: MIC determination of sodium citrate by broth microdilution; assay type: cell-based; conditions: 16% w/v sodium citrate, pH 6.4-7.5; concluded from MICs of FIGS. 2A and 2B
Protocol: (§2) In vitro testing was conducted with sodium citrate on samples of various microorganisms to determine a minimum inhibitory concentration (MIC) of sodium citrate (at pH 6.4-7.5) for those microorganisms. […] Testing was performed as set forth in ‘Methods for Dilution Antimicrobial Susceptibility Tests for Bacteria That Grow Aerobically,’ 11th Edition, Clinical and Laboratory Standards Institute (2018), ‘Methods for Determining Bactericidal Activity of Antimicrobial Agents' Approved Guideline.’ Vol. 12, No. 9, Clinical and Laboratory Standards Institute (1999), and ‘Development of In Vitro Susceptibility Testing Criteria and Quality Control Parameters; Approved Guideline-Second Edition,’ Vol. 21, No. 7, Clinical and Laboratory Standards Institute (2001).
(§3) For MIC determinations, sodium citrate was reconstituted and diluted to various working stock concentrations (8%, 10%, 12%, 14%, 16%, 20%, 24%, and 28% in deionized water and transferred into round-bottom 96-well microdilution plates. Three strains each of Gram-positive bacteria, Gram-negative bacteria, and yeast were obtained from the American Tissue Type Collection (ATCC) or the Centers for Disease Control Antibiotic Resistant (CDC AR) Isolate Bank. Cultures were grown on Trypticase Soy Agar (TSA, for bacteria) or Sabouraud Dextrose Agar (SDA, for yeast) and suspended in Mueller Hinton Broth to a final cell density of approximately 5×10^5 CFU/mL during exposure to sodium citrate. Following incubation at 35±2° C. for 24±2 h (bacteria) or 44±4 h (yeast), microdilution plates were visually examined for the presence or inhibition of growth.
(§4) As will be appreciated, the MIC is shown, thus testing of higher concentrations was deemed unnecessary, because if, for example 4% sodium citrate is the MIC for a given microorganism, then 16% would be at least as effective. Three (3) replicates were run for each bacteria evaluated and four (4) replicates were run for each fungi evaluated, using two (2) different growth media for the fungi. […]

yeast = assay: as above; assay type: cell-based; conditions: 16% w/v sodium citrate, pH 6.4-7.5; concluded from MICs of FIGS. 2A and 2B
Protocol: as §2, §3, §4

Gram-negative bacteria = assay: as above; assay type: cell-based; conditions: 16% w/v sodium citrate, pH 6.4-7.5; concluded from MICs of FIGS. 2A and 2B
Protocol: as §2, §3, §4

[2] = test system: P. aeruginosa (Gram-negative bacteria); assay: Growth inhibition timeframe at various concentrations of sodium citrate; assay type: cell-based, Pseudomonas aeruginosa; conditions: through 24 hours; for growth of P. aeruginosa: pH 6.4-7.5
Protocol: FIG. 4 is a table showing growth inhibition timeframe of Gram-negative Pseudomonas aeruginosa exposed to various concentrations of sodium citrate.
as §1
Due to this, it is expected that growth inhibition and possibly eradication can occur beyond 24 hours.

whole human blood = assay: Anticoagulation effect in vitro as activated clotting time (ACT), Sonoclot analyzer; assay type: cell-based; conditions: 4% (w/v), versus controls (no solution and saline)
Protocol: The anticoagulation effect of a 4% sodium citrate lock solution was measured in vitro as activated clotting time (ACT) using whole human blood over 2 years. The anticoagulation effectiveness of 4% sodium citrate lock solution on whole blood was determined using the Sonoclot® Coagulation & Platelet Function Analyzer (Sienco Inc., Boulder Colo.), which can calculate the onset of clot formation by monitoring mechanical changes that occur in blood samples during hemostasis. The mechanism is a tubular probe that moves up and down within a blood sample. As the sample progresses through various stages of clotting, electronic circuitry (a transducer) detects increasing resistance. This produces a series of electronic signals that are processed by a microcomputer. The output is the total time of clot formation where the blood is more viscous than initially introduced.

yeast, C. albicans = assay: Growth inhibition timeframe at various concentrations of sodium citrate; assay type: cell-based, Candida albicans; conditions: through 24 hours, pH 6.4-7.5
Protocol: FIG. 5 is a table showing growth inhibition timeframe of the fungus Candida albicans exposed to various concentrations of sodium citrate.
as §1

## O=C([O-])CC(O)(CC(=O)[O-])C(=O)[O-].[Na+].[Na+].[Na+] [sodium citrate, trisodium citrate]
[1]; 6% (w/v)
  bacteria count of S. aureus: decrease
  growth of S. aureus: does not grow
[1]; 8% (w/v)
  bacteria count of S. aureus: decrease
  growth of S. aureus: does not grow
[1]; 10% (w/v)
  bacteria count of S. aureus: decrease
  growth of S. aureus: does not grow
Gram-positive bacteria
  growth and proliferation of Gram-positive bacteria: will prevent growth and proliferation
yeast
  growth and proliferation of yeast: will prevent growth and proliferation
Gram-negative bacteria
  growth and proliferation of Gram-negative bacteria: will prevent growth and proliferation
[2]; 10% (w/v)
  bacteria count of P. aeruginosa: decrease
  growth of P. aeruginosa: does not grow
[2]; 12% (w/v)
  bacteria count of P. aeruginosa: decrease
  growth of P. aeruginosa: does not grow
[2]; 14% (w/v)
  bacteria count of P. aeruginosa: decrease
  growth of P. aeruginosa: does not grow
Whole human blood
  time required for clot formation (activated clotting time): longer relative to the controls
yeast, C. albicans; 2% (w/v)
  growth of C. albicans: does not grow
yeast, C. albicans; 4% (w/v)
  growth of C. albicans: does not grow
yeast, C. albicans; 6% (w/v)
  growth of C. albicans: does not grow
